The text below walks through data of PMC5104426, “Screening a Phage Display Library for Two Novel OmpU-Binding Peptides with Adhesion Antagonistic Activity against Vibrio mimicus” (PLoS ONE, 2016).

For this test, the system named is rOmpU fusion protein. The test is described as follows: Solid phase non-competitive ELISA (Beatty method), affinity constant. The format is binding, Vibrio mimicus. The following applies: for affinity constant: peptide coated 2.5-40 μg/mL, rOmpU 0.2-12.8 μg/mL, modified Beatty formula, triplicate, mean ± SD, SD; for AAP concentration at 50% OD492nm: from fitted curve equation. Here is the method:
To determine the binding affinity of interactions between adhesion antagonistic peptide and rOmpU fusion protein, solid phase non-competitive ELISA method (also known as the Beatty method) was used to measure the affinity constant of adhesion antagonistic peptide. Briefly, adhesion antagonistic peptides were diluted to 40 μg/mL, 20 μg/mL, 10 μg/mL, 5 μg/mL and 2.5 μg/mL, respectively, and laterally coated onto plate wells (100 μL/well) at 4°C overnight. Next day, each well was blocked with 5% BSA at 37°C for 2 h, and then washed 6 times with TBST. Subsequently, rOmpU fusion protein were diluted to 12.8 μg/mL, 3.2 μg/mL, 0.8 μg/mL and 0.2 μg/mL, respectively, and longitudinally added to coated wells (100 μL/well), and the plates were incubated for 2 h at 37°C. After thorough washing, rabbit anti-rOmpU protein antibody, HRP labeled goat anti-rabbit IgG and substrate solution was added in turn, each step was preceded by 6 washes in TBST. OD492 nm values were finally determined. With OD492nm values as the ordinate and adhesion antagonistic peptide concentration as the abscissa, the binding reaction curves between adhesion antagonistic peptide and rOmpU fusion protein at different concentrations were plotted. MATLAB version 7.0 was used to fitting the binding response curve, and to derive the curve equation. From the equation, the corresponding adhesion antagonistic peptide concentration at 50% OD492nm value in the curve was obtained. The affinity constant K was calculated using a modified version of the Beatty formula [affinity constant (K) = (n—1) / 2 (nAb'total- Abtotal)] [11]. Ab'total and Abtotal in the formula represent respectively the corresponding adhesion antagonistic peptide concentration at 50% OD492nm value in the binding response curve when the concentration of rOmpU protein was P' and P; n represents P/P'. This assay was performed in triplicate.
A general note: In an ELISA, binding on a coated surface is turned into a signal by an enzyme label.

For the sequence “TWTCSDVICTAR [P1, adhesion antagonistic peptide]”, the affinity constant result is listed as “(6.17 ± 0.19) × 10^8 L/mol”. In addition, the “AAP concentration at 50% OD492nm” value (rOmpU concentration 0.2 μg/mL) worked out at 1.12 µg/mL. For the same sequence, for the setting “rOmpU concentration 0.8 μg/mL”, the “AAP concentration at 50% OD492nm” value was 1.05 µg/mL. In addition, the “AAP concentration at 50% OD492nm” value (rOmpU concentration 3.2 μg/mL) was found to be 0.98 µg/mL. Further, under “rOmpU concentration 12.8 μg/mL”, the “AAP concentration at 50% OD492nm” value is 0.86 µg/mL.

“SCTSPHCFMWLP [P2, adhesion antagonistic peptide]”: the affinity constant result was “(1.24 ± 0.56) × 10^9 L/mol”. The “AAP concentration at 50% OD492nm” value (rOmpU concentration 0.2 μg/mL) turned out to be 0.70 µg/mL. Besides, the “AAP concentration at 50% OD492nm” value (rOmpU concentration 0.8 μg/mL) stood at 0.57 µg/mL. In addition, the “AAP concentration at 50% OD492nm” value (rOmpU concentration 3.2 μg/mL) was 0.56 µg/mL. In addition, the “AAP concentration at 50% OD492nm” value (rOmpU concentration 12.8 μg/mL) worked out at 0.55 µg/mL.
